Data on 23 molecules can be found in patent US8541584B2, “3-(1,2,3-triazol-4-yl) pyrrolo [2,3-b] pyridine derivatives” (Merck Patent GmbH, priority 2009, dated 2013).

The target in one assay is T1, PDK1 (Homo sapiens, UniProt O15530).
T1 construct: His6 (N)
T1 sequence (O15530 51-556 limits assumed): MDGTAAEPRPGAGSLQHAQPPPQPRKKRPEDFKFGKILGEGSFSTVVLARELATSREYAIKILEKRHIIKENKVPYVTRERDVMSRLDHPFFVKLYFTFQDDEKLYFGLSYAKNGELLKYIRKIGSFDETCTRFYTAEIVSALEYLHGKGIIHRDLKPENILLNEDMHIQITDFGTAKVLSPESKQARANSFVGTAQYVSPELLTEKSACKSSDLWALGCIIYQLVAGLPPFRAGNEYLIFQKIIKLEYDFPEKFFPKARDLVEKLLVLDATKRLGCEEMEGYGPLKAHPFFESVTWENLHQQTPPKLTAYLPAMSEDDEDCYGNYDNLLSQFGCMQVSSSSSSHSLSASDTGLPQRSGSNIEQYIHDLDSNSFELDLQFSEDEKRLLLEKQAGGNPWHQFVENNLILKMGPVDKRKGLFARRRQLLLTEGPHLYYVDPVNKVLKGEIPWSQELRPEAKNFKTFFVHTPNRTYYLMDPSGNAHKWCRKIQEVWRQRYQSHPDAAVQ
The assay is described as follows: Test for the inhibition of PDK1 (384-well flashplate, 33P-ATP). Type of assay: biochemical. The following applies: His6-PDK1 3.4 nM, 4 μM ATP, 30° C., 60 min. The method, then: 4.0 Test for the Inhibition of PDK1
The experimental batches are carried out in a flashplate system with 384 wells/microtitration plate.
In each case, the PDK1 sample His6-PDK1(1-50)(3.4 nM), the PDK1 substrate biotin-bA-bA-[…] (400 nM), 4 μM ATP (with 0.2 μCi of ^33P-ATP/well) and the test substance in 50 μl of conventional experimental solution per well are incubated at 30° C. for 60 min. The test substances are employed in corresponding concentrations (if desired in a dilution series). The control is carried out without test substance. The reaction is stopped using standard methods and washed. The activity of the kinase is measured via the incorporated radioactivity in top count. In order to determine the non-specific kinase reaction (blank value), the experimental batches are carried out in the presence of 100 nM staurosporin.
The radioactivity (decompositions per minute) of the blank value (no use of test substance in the presence of staurosporin) is subtracted from all other radioactivity values. The controls (kinase activity without test substance) are set equal to 100 percent and all other radioactivity values (after subtracting the blank value) are expressed set in relation thereto (for example in % of the control).
IC50 values (50% inhibition) are determined with the aid of statistics programmes, such as, for example, RS1.

Assay [1] concerns PDK1 kinase activity (P-T308-PKB) in PC3 cells. The assay is described as follows: Cellular testing of PDK1 kinase inhibitors (Luminex assay, P-T308-PKB in PC3 cells). Type of assay: cell-based. The following applies: Homo sapiens, PC-3, 0.5 h, serum-free, 30 min with test substance. The method, then: Description of the Method for Cellular Testing of PDK1 Kinase Inhibitors
The cellular assay for determination of the PDK1 kinase activity is performed as Luminex assay in the 96-well format. PC3 cells are sown at 20,000 cells per well in 100 μl of medium (45% of […]/45% of Ham's F12/10% of FCS) and incubated under serum-free conditions on the following day for 30 min with serial dilution of the test substance (7 concentrations). The cells are subsequently lysed using 90 μl of lysis buffer (20 mM Tris/HCl pH 8.0, 150 mM NaCl, 1% of NP40, 10% of glycerol, 1% of phosphatase inhibitor I, 1% of phosphatase inhibitor II, 0.1% of protease inhibitor Cocktail III, 0.01% of benzonase) per well, and the lysates are separated off from insoluble cell constituents by means of centrifugation through a 96-well filter plate (0.65 μm). The lysates are incubated overnight at 4° C. with shaking with Luminex beads to which an anti-total PKB antibody has been coupled. Detection is carried out on the following day by addition of a P-T308-PKB antibody and a species-specific PE-labelled secondary antibody. The determination of P-T308-PKB is carried out by measurement in the Luminex100 instrument by determination of 100 events per cavity in a measurement time of 60 sec. As pharmacological blank, the signals obtained from cells which have been treated with 10 μM staurosporin are subtracted from all other batches. The control value used for maximum phosphorylation of PKB on T308 are the signals from cells which have been treated only with the solvent (0.3% of DMSO). The values of the batches treated with test substance are calculated from this as percent of control, and IC50 values are determined by means of RS1.

On PDK1, `c1ccc(Cn2cc(-c3c[nH]c4ncccc34)nn2)cc1` [Compound A1, 3-(1-benzyl-1H-1,2,3-triazol-4-yl)-1H-pyrrolo[2,3-b]pyridine] came in with an IC50 of 0.5 to 1000 nM.
Turning to `Clc1ccc(Cn2cc(-c3c[nH]c4ncccc34)nn2)cc1` [Compound A2, 3-[1-(4-chlorobenzyl)-1H-1,2,3-triazol-4-yl]-1H-pyrrolo[2,3-b]-pyridine], at PDK1, the IC50 lay within 1000 to 10000 nM.
With `Cc1[nH]c2ncccc2c1-c1cn(Cc2ccccc2)nn1` [Compound A3, 3-(1-Benzyl-1H-1,2,3-triazol-4-yl)-2-methyl-1H-pyrrolo[2,3-b]pyridine], at PDK1, the IC50 fell in the range of 0.5 to 1000 nM.
Take `Cn1cc(-c2cnc3[nH]cc(-c4cn(Cc5cccc(F)c5)nn4)c3c2)cn1` [Compound A5, 3-[1-(3-Fluorobenzyl)-1H-1,2,3-triazol-4-yl]-5-(1-methyl-1H-pyrazol-4-yl)-1H-pyrrolo-[2,3-b]pyridine]: the IC50 at PDK1 lay in the range of 0.5 to 1000 nM; in assay [1] it was 1000 to 10000 nM.
The corresponding values for `Cn1cc(-c2cnc3[nH]cc(-c4cn(Cc5ccc(F)cc5)nn4)c3c2)cn1` [Compound A6, 3-[1-(4-Fluorobenzyl)-1H-1,2,3-triazol-4-yl]-5-(1-methyl-1H-pyrazol-4-yl)-1H-pyrrolo-[2,3-b]pyridine] are 0.5 to 1000 nM and 1000 to 10000 nM.
For `CC(c1ccccc1)n1cc(-c2c[nH]c3ncc(-c4cnn(C)c4)cc23)nn1` (stereo not drawn) [Compound A8, 5-(1-methyl-1H-pyrazol-4-yl)-3-[1-(1-phenylethyl)-1H-1,2,3-triazol-4-yl]-1H-pyrrolo[2,3-b]pyridine], in that order: 0.5 to 1000 nM and 1000 to 10000 nM.
For `COc1ccnc2[nH]cc(-c3cn(Cc4ccccc4)nn3)c12` [Compound A15, 3-(1-benzyl-1H-1,2,3-triazol-4-yl)-4-methoxy-1H-pyrrolo[2,3-b]-pyridine], the IC50 at PDK1 is 0.5 to 1000 nM.
`CC(c1cccc(C(F)(F)F)c1)n1cc(-c2c[nH]c3ncc(-c4cnn(C)c4)cc23)nn1` (stereo not drawn) [Compound A19, 5-(1-Methyl-1H-pyrazol-4-yl)-3-{1-[1-(3-trifluoromethylphenyl)ethyl]-1H-1,2,3-triazol-4-yl}-1H-pyrrolo[2,3-b]pyridine]: the IC50 at PDK1 fell in the range of 0.5 to 1000 nM; in assay [1] it was 1000 to 10000 nM.
The corresponding values for `Cn1cc(-c2cnc3[nH]cc(-c4cn(Cc5ccc(F)cc5F)nn4)c3c2)cn1` [Compound A21, 3-[1-(2,4-Difluorobenzyl)-1H-1,2,3-triazol-4-yl]-5-(1-methyl-1H-pyrazol-4-yl)-1H-pyrrolo-[2,3-b]pyridine] are 0.5 to 1000 nM and 1000 to 10000 nM.
For `Cn1cc(-c2cnc3[nH]cc(-c4cn(Cc5cccc(C(F)(F)F)c5F)nn4)c3c2)cn1` [Compound A22, 3-[1-(2-Fluoro-3-trifluoromethylbenzyl)-1H-1,2,3-triazol-4-yl]-5-(1-methyl-1H-pyrazol-4-yl)-1H-pyrrolo[2,3-b]pyridine], in that order: 0.5 to 1000 nM and 1000 to 10000 nM.
The corresponding values for `Cn1cc(-c2cnc3[nH]cc(-c4cn(Cc5cccc(Cl)c5F)nn4)c3c2)cn1` [Compound A23, 3-[1-(3-Chloro-2-fluorobenzyl)-1H-1,2,3-triazol-4-yl]-5-(1-methyl-1H-pyrazol-4-yl)-1H-pyrrolo[2,3-b]pyridine] are 0.5 to 1000 nM and 0.5 to 1000 nM.
For the molecule `Cn1cc(-c2cnc3[nH]cc(-c4cn(Cc5c(F)cccc5C(F)(F)F)nn4)c3c2)cn1` [Compound A24, 3-[1-(2-Fluoro-6-trifluoromethylbenzyl)-1H-1,2,3-triazol-4-yl]-5-(1-methyl-1H-pyrazol-4-yl)-1H-pyrrolo[2,3-b]pyridine], the results for the IC50 (against PDK1; in assay [1]) were 0.5 to 1000 nM and 1000 to 10000 nM, respectively.
The corresponding values for `Cn1cc(-c2cnc3[nH]cc(-c4cn(Cc5ccc(C(F)(F)F)cc5F)nn4)c3c2)cn1` [Compound A26, 3-[1-(2-Fluoro-4-trifluoromethylbenzyl)-1H-1,2,3-triazol-4-yl]-5-(1-methyl-1H-pyrazol-4-yl)-1H-pyrrolo[2,3-b]pyridine] are 0.5 to 1000 nM and 1000 to 10000 nM.
`CC(c1ccc(C(=O)O)cc1)n1cc(-c2c[nH]c3ncc(-c4cnn(C)c4)cc23)nn1` (stereo not drawn) [Compound A27, 4-(1-{4-[5-(1-Methyl-1H-pyrazol-4-yl)-1H-pyrrolo[2,3-b]pyridin-3-yl]-1,2,3-triazol-1-yl}-ethyl)benzoic acid]: the IC50 on PDK1 was 0.5 to 1000 nM.
With `Cn1cc(-c2cnc3[nH]cc(-c4cn(C(CC(=O)O)c5ccccc5)nn4)c3c2)cn1` (stereo not drawn) [Compound A28, 3-{4-[5-(1-Methyl-1H-pyrazol-4-yl)-1H-pyrrolo[2,3-b]pyridin-3-yl]-1,2,3-triazol-1-yl}-3-phenylpropionic acid], the IC50 at PDK1 lay within 0.5 to 1000 nM.
`CC(c1ccc(CO)cc1)n1cc(-c2c[nH]c3ncc(-c4cnn(C)c4)cc23)nn1` (stereo not drawn) [Compound A30, [4-(1-{4-[5-(1-Methyl-1H-pyrazol-4-yl)-1H-pyrrolo[2,3-b]pyridin-3-yl]-1,2,3-triazol-1-yl}-ethyl)phenyl]methanol]: the IC50 on PDK1 was in the range of 0.5 to 1000 nM; in assay [1], 1000 to 10000 nM.
With `Cn1cc(-c2cnc3[nH]cc(-c4cn(Cc5ccncc5F)nn4)c3c2)cn1` [Compound A32, 3-[1-(3-Fluoropyridin-4-ylmethyl)-1H-1,2,3-triazol-4-yl]-5-(1-methyl-1H-pyrazol-4-yl)-1H-pyrrolo[2,3-b]pyridine], the IC50 in assay [1] was 1000 to 10000 nM.
`COc1cccc(Cn2cc(-c3c[nH]c4ncc(-c5cnn(C)c5)cc34)nn2)c1` [Compound A34, 3-[1-(3-Methoxybenzyl)-1H-1,2,3-triazol-4-yl]-5-(1-methyl-1H-pyrazol-4-yl)-1H-pyrrolo-[2,3-b]pyridine] returned an IC50 in assay [1] of 1000 to 10000 nM.
The same measure, in the same setting: for `Cn1cc(-c2cnc3[nH]cc(-c4cn(Cc5ccccc5CO)nn4)c3c2)cn1` [Compound A35, (2-{4-[5-(1-Methyl-1H-pyrazol-4-yl)-1H-pyrrolo[2,3-b]pyridin-3-yl]-1,2,3-triazol-1-ylmethyl}phenyl)methanol] the value was 1000 to 10000 nM; for `Cn1cc(-c2cnc3[nH]cc(-c4cn(Cc5ccc(OC(F)F)cc5)nn4)c3c2)cn1` [Compound A36, 3-[1-(4-Difluoromethoxybenzyl)-1H-1,2,3-triazol-4-yl]-5-(1-methyl-1H-pyrazol-4-yl)-1H-pyrrolo[2,3-b]pyridine], 1000 to 10000 nM; for `COC(=O)c1cccc(Cn2cc(-c3c[nH]c4ncc(-c5cnn(C)c5)cc34)nn2)c1` [Compound A37, Methyl 3-{4-[5-(1-methyl-1H-pyrazol-4-yl)-1H-pyrrolo[2,3-b]pyridin-3-yl]-1,2,3-triazol-1-ylmethyl}benzoate], 1000 to 10000 nM.
The same measure, in the same setting: then `Cn1cc(-c2cnc3[nH]cc(-c4cn(Cc5ccccc5C#N)nn4)c3c2)cn1` [Compound A38, 2-{4-[5-(1-Methyl-1H-pyrazol-4-yl)-1H-pyrrolo[2,3-b]pyridin-3-yl]-1,2,3-triazol-1-yl-methyl}benzonitrile], with 0.5 to 1000 nM; and `Cn1cc(-c2cnc3[nH]cc(-c4cn(Cc5cccc(OC(F)F)c5)nn4)c3c2)cn1` [Compound A39, 3-[1-(3-Difluoromethoxybenzyl)-1H-1,2,3-triazol-4-yl]-5-(1-methyl-1H-pyrazol-4-yl)-1H-pyrrolo[2,3-b]pyridine], with 1000 to 10000 nM.
